Measurements as given in PubChem BioAssay (NCI).
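All cell lines were grown in 96-well plates and treated with compound for 48 hours. GI50 = concentration required for 50% inhibition of growth. At the TGI there is no net growth.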

Experiments:
Assay in all cases: DTP human tumour cell line panel, 48 h
[1] = system: HCC-2998 colon
[2] = system: SF-539 CNS
[3] = system: SK-MEL-28 melanoma
[4] = system: SN12C renal
[5] = system: COLO 205 colon
[6] = system: NCI-H460 lung
[7] = system: MOLT-4 leukemia
[8] = system: U251 CNS
[9] = system: TK-10 renal
[10] = system: OVCAR-5 ovarian
[11] = system: SNB-75 CNS
[12] = system: DU-145 prostate
[13] = system: SNB-19 CNS
[14] = system: HS 578T breast
[15] = system: T-47D breast
[16] = system: NCI-H226 lung
[17] = system: M14 melanoma
[18] = system: MALME-3M melanoma
[19] = system: 786-0 renal
[20] = system: OVCAR-8 ovarian
[21] = system: NCI/ADR-RES ovarian
[22] = system: SK-MEL-2 melanoma
[23] = system: RPMI-8226 leukemia
[24] = system: UO-31 renal
[25] = system: SK-MEL-5 melanoma
[26] = system: HL-60(TB) leukemia
[27] = system: CAKI-1 renal
[28] = system: LOX IMVI melanoma
[29] = system: ACHN renal
[30] = system: HOP-92 NSCLC
[31] = system: SK-OV-3 ovarian
[32] = system: NCI-H23 lung
[33] = system: OVCAR-4 ovarian
[34] = system: A549 NSCLC
[35] = system: SR leukemia
[36] = system: MDA-MB-231 breast
[37] = system: SF-295 CNS
[38] = system: SF-268 CNS
[39] = system: UACC-257 melanoma
[40] = system: A498 renal
[41] = system: HCT-116 colon
[42] = system: IGROV1 ovarian
[43] = system: MDA-MB-435
[44] = system: HOP-62 NSCLC
[45] = system: OVCAR-3 ovarian
[46] = system: HT29 colon

SMILES: O=c1oc2cc(OS(=O)(=O)c3ccc(F)cc3)ccc2c2c1CCCCC2
- GI50 [1]: > 100 µM
- TGI [1]: > 100 µM
- GI50 [2]: > 100 µM
- TGI [2]: > 100 µM
- GI50 [3]: > 100 µM
- TGI [3]: > 100 µM
- GI50 [4]: > 100 µM
- TGI [4]: > 100 µM
- GI50 [5]: 2.17 µM
- TGI [5]: > 100 µM
- GI50 [6]: > 100 µM
- TGI [6]: > 100 µM
- GI50 [7]: > 100 µM
- TGI [7]: > 100 µM
- GI50 [8]: > 100 µM
- TGI [8]: > 100 µM
- GI50 [9]: > 100 µM
- TGI [9]: > 100 µM
- GI50 [10]: > 100 µM
- TGI [10]: > 100 µM
- GI50 [11]: 19.6 µM
- TGI [11]: > 100 µM
- GI50 [12]: > 100 µM
- TGI [12]: > 100 µM
- GI50 [13]: > 100 µM
- TGI [13]: > 100 µM
- GI50 [14]: 55.2 µM
- TGI [14]: > 100 µM
- GI50 [15]: 1.86 µM
- TGI [15]: > 100 µM
- GI50 [16]: > 100 µM
- TGI [16]: > 100 µM
- GI50 [17]: > 100 µM
- TGI [17]: > 100 µM
- GI50 [18]: > 100 µM
- TGI [18]: > 100 µM
- GI50 [19]: > 100 µM
- TGI [19]: > 100 µM
- GI50 [20]: > 100 µM
- TGI [20]: > 100 µM
- GI50 [21]: > 100 µM
- TGI [21]: > 100 µM
- GI50 [22]: > 100 µM
- TGI [22]: > 100 µM
- GI50 [23]: 3.7 µM
- TGI [23]: > 100 µM
- GI50 [24]: > 100 µM
- TGI [24]: > 100 µM
- GI50 [25]: 5.69 µM
- TGI [25]: > 100 µM
- GI50 [26]: > 100 µM
- TGI [26]: > 100 µM
- GI50 [27]: > 100 µM
- TGI [27]: > 100 µM
- GI50 [28]: > 100 µM
- TGI [28]: > 100 µM
- GI50 [29]: > 100 µM
- TGI [29]: > 100 µM
- GI50 [30]: 4.05 µM
- TGI [30]: 95.1 µM
- GI50 [31]: > 100 µM
- TGI [31]: > 100 µM
- GI50 [32]: > 100 µM
- TGI [32]: > 100 µM
- GI50 [33]: 5.76 µM
- TGI [33]: > 100 µM
- GI50 [34]: > 100 µM
- TGI [34]: > 100 µM
- GI50 [35]: > 100 µM
- TGI [35]: > 100 µM
- GI50 [36]: > 100 µM
- TGI [36]: > 100 µM
- GI50 [37]: > 100 µM
- TGI [37]: > 100 µM
- GI50 [38]: > 100 µM
- TGI [38]: > 100 µM
- GI50 [39]: > 100 µM
- TGI [39]: > 100 µM
- GI50 [40]: > 100 µM
- TGI [40]: > 100 µM
- GI50 [41]: 6.24 µM
- TGI [41]: > 100 µM
- GI50 [42]: > 100 µM
- TGI [42]: > 100 µM
- GI50 [43]: > 100 µM
- TGI [43]: > 100 µM
- GI50 [44]: 45.1 µM
- TGI [44]: > 100 µM
- GI50 [45]: > 100 µM
- TGI [45]: > 100 µM
- GI50 [46]: 1.04 µM
- TGI [46]: > 100 µM
